{
  "source": "paper PMC4965013",
  "about": "“Open Source Drug Discovery with the Malaria Box Compound Collection for Neglected Diseases and Beyond” (PLoS Pathogens, 2016)",
  "key": {"[1]": {"tested_on": "NCI60 human tumor cell lines", "assay": "NCI60 5-dose (dose-response) assay", "type": "cell-based", "source_text": "Columns IE-KK. NCI: Misra group (data presented first in this paper). NCI60 anti-tumor cell activity. Methods: […] These 60 cell lines, along with others, have been developed at NCI and have been maintained and distributed for research purposes by NCI for over 25 years. The experimental readout provides both inhibition of cell growth and cell kill. The screen was originally designed to prioritize agents for further evaluation. […] This is the same as for the 5-dose assay, described on http://dtp.cancer.gov/branches/btb/ivclsp.html. […] Testing beyond the initial screen: There were 133 compounds that passed threshold to proceed to 5-dose (dose-response) (data are available for the 133 compounds at the DTP public website (dtp.cancer.gov) by searching either the MMV number or NSC number). After examination of the 5-dose data, 10 compounds were selected for repeat testing based generally on potency, differential cell activity or activity on an individual cell lines or cell line panel. A summary of the data for the 10 compounds of interest is in the table below."}, "Toxoplasma gondii TS-4": {"tested_on": "Toxoplasma gondii TS-4", "settings": "ref [84]; read-out: Toxoplasma gondi TS4 EC50; cited from earlier work"}, "[2]": {"tested_on": "Strongyloides stercoralis", "assay": "Strongyloides stercoralis Scynexis", "type": "cell-based", "settings": "10µM", "experimental": "Supplement ppat.1005763.s002.xlsx, sheet \"S1 Table Heat Map\" | column: Strongyloides stercoralis % dead at 10µM Scynexis"}, "CYP2C9 mRNA": {"tested_on": "CYP2C9 mRNA", "assay": "MPCC LMA-Luminex CYP2C9 mRNA", "type": "cell-based, human", "settings": "10µM"}, "MAOB mRNA": {"tested_on": "MAOB mRNA", "assay": "MPCC LMA-Luminex MAOB mRNA", "type": "cell-based, human", "settings": "10µM"}, "CYP1A2 mRNA": {"tested_on": "CYP1A2 mRNA", "assay": "MPCC LMA-Luminex CYP1A2 mRNA", "type": "cell-based, human", "settings": "10µM"}, "CYP2C19 mRNA": {"tested_on": "CYP2C19 mRNA", "assay": "MPCC LMA-Luminex CYP2C19 mRNA", "type": "cell-based, human", "settings": "10µM"}, "MAOA mRNA": {"tested_on": "MAOA mRNA", "assay": "MPCC LMA-Luminex MAOA mRNA", "type": "cell-based, human", "settings": "10µM"}, "CYP2D8 mRNA": {"tested_on": "CYP2D8 mRNA", "assay": "MPCC LMA-Luminex CYP2D8 mRNA", "type": "cell-based, human", "settings": "10µM"}, "[3]": {"settings": "mean over cell lines of one experiment, listed as 766523/2"}},
  "note": "Where “and” joins values, the source holds several entries; their conditions need not be identical. Identical values can stand only once.",
  "data": [
    {"compound": "CCN1CCN(c2cc(C)c3cc(NC(=O)c4ccc(OC)c(OC)c4)ccc3n2)CC1", "note": "[MMV019074]", "values": [
      {"measurement": "Notes (NCI60 5-dose activity pattern)", "setting": "[1]", "value": "Specific lines sensitive"},
      {"measurement": "MGLI50 = Mean Growth Log I50", "setting": "[1]; 5-dose, mean over NCI60 panel", "value": -4.91},
      {"measurement": "_MID Log10GI50", "setting": "[1]; [3]", "value": "-4.8 Molar and -5.03 Molar"},
      {"measurement": "_MID Log10LC50", "setting": "[1]; [3]", "value": "-4.0 Molar and -4.04 Molar"},
      {"measurement": "_MID Log10TGI", "setting": "[1]; [3]", "value": "-4.05 Molar and -4.25 Molar"}
    ]},
    {"compound": "COc1ccc(C(=O)Nc2ccc3nc(N4CCCCC4)cc(C)c3c2)cc1OC", "note": "[MMV019758]", "values": [
      {"measurement": "EC50", "setting": "Toxoplasma gondii TS-4", "value": 25.7, "unit": "µM"}
    ]},
    {"compound": "CCN(CC)c1cc(C)c2cc(NC(=O)c3cccc(OC)c3)ccc2n1", "note": "[MMV000498]", "values": [
      {"measurement": "Strongyloides stercoralis % dead", "setting": "[2]", "value": 25, "unit": "%"}
    ]},
    {"compound": "COc1cc2cc(C(=O)Nc3ccccc3)c(N)nc2cc1OC", "note": "[MMV006767]", "values": [
      {"measurement": "Human hepatocyte CYP2C9 mRNA induction, 0.0 normal", "setting": "CYP2C9 mRNA", "value": -0.09},
      {"measurement": "Human hepatocyte MAOB mRNA induction, 0.0 normal", "setting": "MAOB mRNA", "value": -0.22},
      {"measurement": "Human hepatocyte CYP1A2 mRNA induction, 0.0 normal", "setting": "CYP1A2 mRNA", "value": -0.09},
      {"measurement": "Human hepatocyte CYP2C19 mRNA induction, 0.0 normal", "setting": "CYP2C19 mRNA", "value": -0.39},
      {"measurement": "Human hepatocyte MAOA mRNA induction, 0.0 normal", "setting": "MAOA mRNA", "value": 0.23},
      {"measurement": "Human hepatocyte CYP2D8 mRNA induction, 0.0 normal", "setting": "CYP2D8 mRNA", "value": -0.10}
    ]},
    {"compound": "CCOC(=O)c1cnc2ccc(OC)cc2c1NCc1ccccc1", "note": "[MMV665813]", "values": [
      {"measurement": "Human hepatocyte CYP2C9 mRNA induction, 0.0 normal", "setting": "CYP2C9 mRNA", "value": -0.17},
      {"measurement": "Human hepatocyte MAOB mRNA induction, 0.0 normal", "setting": "MAOB mRNA", "value": -1.05},
      {"measurement": "Human hepatocyte CYP1A2 mRNA induction, 0.0 normal", "setting": "CYP1A2 mRNA", "value": -0.15},
      {"measurement": "Human hepatocyte CYP2C19 mRNA induction, 0.0 normal", "setting": "CYP2C19 mRNA", "value": -0.35},
      {"measurement": "Human hepatocyte MAOA mRNA induction, 0.0 normal", "setting": "MAOA mRNA", "value": -0.36},
      {"measurement": "Human hepatocyte CYP2D8 mRNA induction, 0.0 normal", "setting": "CYP2D8 mRNA", "value": -0.79}
    ]}
  ]
}
